Reference: US11173116B2, “Drug delivery system kit comprising an enzyme” (INDUSTRY-ACADEMIC COOPERATION FOUNDATION, YONSEI UNIVERSITY, priority 2018, dated 2021)
Where a name gives a salt, the structure may show the parent alone.

System: HeLa cells
Assay: Cytotoxicity test, MTT assay
Assay type: cell-based
Conditions: amount of 1 μg
Protocol: HeLa cells were cultured for 2 to 3 days in a 100 mm culture dish (SPL, Pocheon-si, Korea) in a 5% CO2 incubator. When 95% of the cells were grown, the cells were detached by trypsin-EDTA treatment. Thereafter, for a toxicity test, the cells were inoculated at a density of 7,000 cells/well in a 24-well plate. For cell attachment, the cells were cultured for one day, and for cytotoxicity and anticancer assays, the enzyme, DOX, and DOX-free hollow drug delivery system in the culture medium were used to treat the cells separately. After the materials were cultured for one day, the cytotoxicity was measured using a 3-(4,5-dimethylthiazol-2-yl)-2,5-diphenyltetrazolium bromide (MTT) assay. An MTT solution (5 mg/mL) in PBS was used to treat the cells for 2 hours in an incubator, the cells were dissolved in DMSO, and the absorbance at a wavelength of 540 nm was measured using a plate reader (SpectraMax 340 PC; Molecular Devices, Sunnyvale, Calif., USA).
The anticancer effect of the DOX-conjugated drug delivery system was investigated through a cytotoxicity test. In this case, 1 μg of the DOX-conjugated hollow drug delivery systems of Preparation Examples 4 and 5 were used. A cell culture medium was composed of 90% Dulbecco's Modified Eagle Medium, 10% fetal bovine serum, and 1% penicillin-streptomycin-glutamine. […]

`COc1cccc2c1C(=O)c1c(O)c3c(c(O)c1C2=O)C[C@@](O)(C(=O)CO)C[C@@H]3O[C@H]1C[C@H](N)[C@H](O)[C@H](C)O1` [DOX, doxorubicin hydrochloride] was tested, and the cytotoxicity was “very high toxicity”.
